For this test, the system named is Pseudomonas aeruginosa ATCC 15442. The test can be described thus: Suspension test for synergy: log reduction of Pseudomonas aeruginosa after 5 min contact. The test is classed as cell-based. The following applies: for Log Reduction: 5 minutes contact. Here is the method: The target organism Pseudomonas aeruginosa ATCC 15442 was taken from freezer stocks and grown for 24 hours on tryptone soy agar (TSA) at 37° C. A second subculture was produced from the first and grown with the same conditions. A test suspension was then created by adding loopfuls of organism to tryptone buffered saline and adjusting the cell concentration to 1×10^8 and 5×10^8 CFU/ml using an internally established calibration curve spectrophotometer at a wavelength of 600 nm. To establish the precise CFU/ml a 1 ml aliquot was then taken from the test suspension and serially diluted down to 10^−6 and 10^−7, 1 ml of each dilution was then plated in duplicate using the pour plate method on to TSA. The plates were then incubated for 24 hours at 37° C. and enumerated.
For each biocide tested a series of 3 samples were prepared in sterile distilled water,
Test sample 1—Biocide alone (to measure basic efficacy of the biocide)
Test sample 2—Biocide in combination with polyglyceryl-10 caprylate/caprate (to measure the efficacy of the combination of biocide and polyglycerol ester)
Control—A control sample of polyglyceryl-10 caprylate/caprate was prepared in deionized water to measure the efficacy of polyglycerol ester alone.
Each test sample was prepared at a concentration 10% higher than that of the target concentration to account for the dilution effect from the addition of the test organism suspension during the test procedure.
A test mixture was prepared by adding a 0.1 ml aliquot of test organism suspension to a tube followed by 0.9 ml of test sample (prepared as above). The combination was then mixed and a timer started immediately.
Upon achieving the specified contact time the test mixture was deactivated by adding a 0.1 ml aliquot of the test mixture to 0.9 ml of neutralizing broth and the whole solution mixed. The solution was left for 5 minutes to ensure the action of the biocide was effectively neutralized.
To quantify the surviving number of organisms in the neutralized test mixture, 4×0.025 ml aliquots were taken and spot plated onto the surface of dried TSA. The plates were then incubated for 24 hours at 37° C.
For spot plating, colonies from the incubated plates were enumerated using the lower count limit of <1 and the upper count limit of >150. […] For the upper limit, if 156 colonies were counted on a plate, >150 would be recorded and 150 would be used for the calculation.
Enumeration and Calculation of T (Test Mixture) • First, the mean average of cfu per 0.025 ml spots was established using the below calculation,
Log Reduction Calculations (N0−T) • Before calculating the log reduction both N0 and T were converted into a logarithm base 10 value. For example;
The test procedure outlined above was used to test for synergy between polyglyceryl-10 caprylate/caprate (PG1000) and the various biocidal agents listed in Table 1. Varying concentrations were prepared and were tested at 5 mins for the presence of Pseudomonas aeruginosa.

On to `CCCCCCCCCCCCN(C)C.Cl` [Dodecyledimethylammonuim chloride], for which, for the setting “biocide alone 20 ppm”, the “Log Reduction” value came to 3.88.

As to `CC(C)O` [Isopropanol], for the setting “biocide alone 16%”, the “Log Reduction” value was under 2.85.

Take “polyglyceryl-10 caprylate/caprate [PGE Control]”: the “Log Reduction” value (PGE alone 100 ppm in deionized water) is under 2.92. Also, the “activity (in words)” value (at 100 ppm, 5 mins) is on record as “little or no activity”.

For `CCCCCCCCCCCCN(CCCN)CCCN` [N-(3-aminopropyl)-N-dodecylpropane-1,3-diamine], the “Log Reduction” value (biocide alone 50 ppm) was 2.98.

As for `N=C(NCCCCCCNC(=N)NC(=N)Nc1ccc(Cl)cc1)NC(=N)Nc1ccc(Cl)cc1` [Chlorhexidine, reference compound], where the note is “biocide alone 65 ppm”, the “Log Reduction” value amounted to 3.44.

Source of the values: US20230247989A1, “Synergistic Biocide Composition With a Polyglycerol Ester” (Arch UK Biocides Ltd, priority 2020, published 2023).
